Results on two molecules are retold here after US10975119B2, “Selective cysteine protease inhibitors and uses thereof” (Genesis Technologies Limited, priority 2011, dated 2021).

Entries after “also recorded” stand apart in the source; their conditions may differ. Where two headings read alike, the source gives them in different places. Bounds are passed on as bounds.

Common to all, as to type: biochemical
One assay concerns the target T1, Caspase-1 (Homo sapiens, UniProt P29466).
T1 construct: mixing the compounds with the respective active caspases; purchased BioVision K151-100
T1 sequence (P29466 120-297 limits assumed): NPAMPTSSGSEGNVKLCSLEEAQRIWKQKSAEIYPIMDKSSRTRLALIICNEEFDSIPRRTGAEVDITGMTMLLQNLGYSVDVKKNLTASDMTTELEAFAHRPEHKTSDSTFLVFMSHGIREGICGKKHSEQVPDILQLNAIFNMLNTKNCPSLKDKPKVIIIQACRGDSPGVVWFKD
T1 sequence (P29466 317-404 limits assumed): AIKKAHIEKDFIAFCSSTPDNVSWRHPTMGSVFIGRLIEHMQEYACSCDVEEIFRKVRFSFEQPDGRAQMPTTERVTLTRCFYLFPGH
In words: Caspase-1 inhibitor screening assay (BioVision kit, YVAD-AFC). A digest of the protocol: (§1)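 Each caspase cleaved its own AFC-labelled peptide substrate, and released AFC was read by fluorescence. % inhibition came from RFU against an uninhibited control.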

Another assay deals with T2, Caspase-2 (Homo sapiens, UniProt P42575).
T2 construct: mixing the compounds with the respective active caspases; purchased BioVision K152-100
T2 sequence (P42575 170-325 limits assumed): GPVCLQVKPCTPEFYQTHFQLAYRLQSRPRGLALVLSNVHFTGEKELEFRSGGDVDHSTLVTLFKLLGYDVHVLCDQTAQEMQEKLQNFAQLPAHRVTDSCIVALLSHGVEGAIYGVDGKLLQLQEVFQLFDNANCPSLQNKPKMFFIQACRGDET
T2 sequence (P42575 334-452 limits assumed): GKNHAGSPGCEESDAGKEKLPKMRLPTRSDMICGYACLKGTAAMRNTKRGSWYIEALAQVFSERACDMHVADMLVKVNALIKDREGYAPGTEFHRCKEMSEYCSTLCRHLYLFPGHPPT
In words: Caspase-2 inhibitor screening assay (BioVision kit, VDVAD-AFC). Particulars: for IC50: read-out: IC50 Casp2. A digest of the protocol:
as §1

For the next assay, the target named is T3, Caspase-7 (Homo sapiens, UniProt P55210).
T3 construct: mixing the compounds with the respective active caspases; purchased BioVision K157-100
T3 sequence (P55210 24-198 limits assumed): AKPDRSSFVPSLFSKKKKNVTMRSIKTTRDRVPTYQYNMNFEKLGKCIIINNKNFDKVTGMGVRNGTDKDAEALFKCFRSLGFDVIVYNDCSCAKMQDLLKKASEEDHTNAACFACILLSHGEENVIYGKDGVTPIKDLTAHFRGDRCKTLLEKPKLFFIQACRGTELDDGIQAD
T3 sequence (P55210 207-303 limits assumed): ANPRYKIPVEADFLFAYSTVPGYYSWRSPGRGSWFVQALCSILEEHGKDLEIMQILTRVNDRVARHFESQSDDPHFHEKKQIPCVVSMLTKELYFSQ
In words: Caspase-7 inhibitor screening assay (BioVision kit, DEVD-AFC). Particulars: for IC50: read-out: IC50 Casp7. In outline:
as §1

The target in a further assay is T4, Caspase-9 (Homo sapiens, UniProt P55211).
T4 construct: purchased BioVision K159-100
T4 sequence (P55211 1-315 limits assumed): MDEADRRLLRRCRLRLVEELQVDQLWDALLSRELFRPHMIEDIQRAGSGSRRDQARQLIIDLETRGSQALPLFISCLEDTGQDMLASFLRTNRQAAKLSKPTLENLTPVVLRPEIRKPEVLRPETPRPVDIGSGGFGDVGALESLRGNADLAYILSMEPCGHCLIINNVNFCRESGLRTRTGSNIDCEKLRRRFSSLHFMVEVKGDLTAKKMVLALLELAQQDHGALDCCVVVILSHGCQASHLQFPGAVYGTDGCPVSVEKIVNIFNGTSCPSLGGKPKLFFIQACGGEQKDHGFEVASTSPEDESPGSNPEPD
T4 sequence (P55211 331-416 limits assumed): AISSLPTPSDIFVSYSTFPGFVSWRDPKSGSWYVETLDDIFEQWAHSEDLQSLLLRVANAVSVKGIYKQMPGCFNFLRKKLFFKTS
In words: Caspase-9 inhibitor screening assay (BioVision kit, LEHD-AFC). Particulars: for IC50: read-out: IC50 Casp9. A digest of the protocol: as §1

The next assay concerns Caspases 1 through 10. In words: Caspase-1 to Caspase-10 inhibitor screening, profile across the panel. The method, then:
The efficacy of an array of compounds as an inhibitor of the activity of Caspases 1 through 10 were assessed by using the respective Caspase Inhibitor Drug Screening Kits (Caspase-1 Catalog #: K151-100, Caspase-2 Catalog #: K152-100, Caspase-3 Catalog #: K153-100, Caspase-4 Catalog #: K154-100, Caspase-5 Catalog #: K155-100, Caspase-6 Catalog #: K156-100, Caspase-7 Catalog #: K157-100, Caspase-8 Catalog #: K158-100, Caspase-9 Catalog #: K159-100, Caspase-10 Catalog #: K160-100, BioVision) following the instructions of the manufacturer. […] Active caspases cleaved their respective synthetic substrates to release free AFC, which was then quantified by fluorometry.
Briefly, the compounds were first tested at 2 concentrations (10 uM and 100 uM final) to determine if there is a hit. […] Each condition was tested in duplicates. […] For some samples, a smaller range of concentrations was tested depending on the % Inhibition results at 10 uM and 100 uM. Results were summarized in Tables 2, 3, and 4 herein after. Table 2 represents the IC50 values (uM) of the test compounds as inhibitors of the activity of the various caspases.
(*) RFU (no inhibitor control)—RFU (compound at a specific concentration)
RFU (no inhibitor control)

For the molecule `CC(C)(C)[C@H](NC(=O)c1ccc2ccccc2n1)C(=O)N1CCC[C@@H]1C(=O)N[C@H](/C=C/S(C)(=O)=O)CC(=O)O` [Compound 6, 2-Quinoline carbonyl-t-Leu-pro-Asp methyl vinyl sulfone], the inhibition at 10 µM on Caspase-1 (read-out: % Inhibition at 10 uM Casp1) is 98%; at Caspase-2 (read-out: % Inhibition at 10 uM Casp2), 2%; at Caspase-7 (10 uM, read-out: % Inhibition at 10 uM Casp7), 0%; on Caspase-9 (10 uM, read-out: % Inhibition at 10 uM Casp9), 1%. The inhibition at 100 µM at Caspase-1 (read-out: % Inhibition at 100 uM Casp1) is 100%; at Caspase-2 (read-out: % Inhibition at 100 uM Casp2), 10%; at Caspase-7 (100 uM, read-out: % Inhibition at 100 uM Casp7), 2%; at Caspase-9 (100 uM, read-out: % Inhibition at 100 uM Casp9) it was 51%. In addition, the 50% inhibitory concentration (IC50) was 40 nM on Caspase-1 (read-out: IC50 Casp1); 42 nM on Caspase-1 (read-out: potency (IC50) against caspase-1); greater than 100000 nM on Caspase-2; greater than 100000 nM on Caspase-7; roughly 100000 nM on Caspase-9. Also, in the assay on Caspases 1 through 10, the “inhibition profile across caspases, in words” value is reported as “inhibits selectively caspase-1; also recorded: very strong inhibitory activity towards pro-inflammatory Caspases”.

`CCOC(=O)/C=C/[C@H](CC(=O)O)NC(=O)[C@H]1CCCN1C(=O)[C@@H](NC(=O)c1ccc(N)c(Cl)c1)C(C)(C)C` [Compound 116, (4-amino-3-chlorobenzene carbonyl)-t-Leu-Pro-Asp Ethyl vinyl ester]: the 50% inhibitory concentration (IC50) is 10 nM on Caspase-1 (read-out: IC50 Casp1), greater than 100000 nM on Caspase-2, 3600 nM on Caspase-7 and 830 nM at Caspase-9. The “inhibition profile across caspases, in words” value in the assay on Caspases 1 through 10 was “stronger inhibitory activity towards pro-inflammatory caspases Caspase-1 and -5”.
